Measurements taken from publication PMC6015718, “Effect of Polyvalence on the Antibacterial Activity of a Synthetic Peptide Derived from Bovine Lactoferricin against Healthcare-Associated Infectious Pathogens” (BioMed Research International, 2018).
≈ marks a conversion by molar mass, not a printed value. No end group written: not given here.

Key:
Format in all cases: cell-based
[1] = tested on: Staphylococcus aureus ATCC 25923 (sensitive); conditions: ATCC 25923, 24 h
Text: (§1) All microorganisms were purchased from the American Type Culture Collection (ATCC). To determine the antibacterial activity of synthetic peptides against HCAI bacteria, the Staphylococcus aureus strains ATCC 25923 and ATCC 33591 were employed as sensitive and resistant strains, respectively, of a Gram-positive microorganisms species, and Klebsiella pneumoniae ATCC 13883 and ATCC 700603 as sensitive and resistant strains of a Gram-negative species.
(§2) The antibacterial activity assay for peptides and controls was performed according to the National Committee for Clinical Laboratory Standards method M7-A7 [11]. MIC and MBC values were determined using a broth microdilution and growth inhibition method with some modification. Briefly, MIC assays were performed by liquid inhibition growth assay in an untreated sterile 96-well flat-bottom tissue culture plate. Bacteria were cultured overnight on Mueller-Hinton agar (MHA). Three colonies were transferred to 8 mL of Mueller-Hinton broth (MHB) and incubated at 37°C until the mid-exponential phase of growth. The turbidity of the cultures was measured and adjusted spectrophotometrically to McFarland standard 0.5, then diluted to a final concentration of […]. Synthetic antibacterial peptide candidate stock solutions were diluted to final concentrations per well of 200, 100, 50, 25, 12.5, and 6.25 μM. […]
(§3) Wells containing MHB with bacterial inoculum only served as bacterial growth controls. Additional controls included MHB alone and MHB with ciprofloxacin (CIP) (2 μg/mL) and bacteria as a positive control. The microplate was incubated for 24 h at 37°C, and growth inhibition was examined by monitoring the optical density at 620 nm (OD620). MIC was defined as the lowest peptide concentration that inhibited bacteria growth >90%.

[2] = tested on: Klebsiella pneumoniae ATCC 700603 (resistant); conditions: ATCC 700603, 24 h
Text: as §1, §2, §3

[3] = tested on: Staphylococcus aureus ATCC 33591 (resistant); conditions: ATCC 33591, 24 h
Text: as §1, §2, §3

[4] = tested on: Klebsiella pneumoniae ATCC 13883 (sensitive); conditions: ATCC 13883, 24 h
Text: as §1, §2, §3

[5] = tested on: Staphylococcus aureus ATCC 25923 (sensitive); conditions: ATCC 25923, 18 h
Text: as §1
(§4) To determine the MBC, an aliquot from each well of the MIC assay was spread onto MHA. After 18 h at 37°C, the concentration that inhibited bacterial growth was determined. Each of these tests was performed four times. MBC was defined as the lowest concentration of peptide that reduced the number of bacteria by 99.9% in vitro [12].

[6] = tested on: Klebsiella pneumoniae ATCC 700603 (resistant); conditions: ATCC 700603, 18 h
Text: as §1, §4

[7] = tested on: Staphylococcus aureus ATCC 33591 (resistant); conditions: ATCC 33591, 18 h
Text: as §1, §4

[8] = tested on: Klebsiella pneumoniae ATCC 13883 (sensitive); conditions: ATCC 13883, 18 h
Text: as §1, §4

Molecule | MIC [1] | MIC [2] | MIC [3] | MIC [4] | MBC [5] | MBC [6] | MBC [7] | MBC [8]
RWQWRWQWR [Palindromic] | 50 µM | 50 µM | 6.25 µM | 50 µM | 100 µM | 100 µM | 50 µM | 100 µM
CSCC[C@H](NC(=O)[C@H](CCCNC(=N)N)NC(=O)[C@H](Cc1c[nH]c2ccccc12)NC(=O)[C@H](CCC(N)=O)NC(=O)[C@H](Cc1c[nH]c2ccccc12)NC(=O)[C@H](CCCNC(=N)N)NC(=O)[C@H](CCCNC(=N)N)NC(=O)[C@H](CS)NC(=O)[C@H](CCCCN)NC(=O)[C@@H](N)Cc1ccccc1)C(=O)N[C@@H](CCCCN)C(=O)N[C@@H](CCCCN)C(=O)N[C@@H](CC(C)C)C(=O)NCC(=O)N[C@@H](C)C(N)=O [LfcinB reference, reference compound] | > 200 µM | – | – | – | > 200 µM | > 200 µM | 100 µM (≈ 199 µg/mL) | > 200 µM
